Measurements: patent US20100028463A1, “EXTRACT OF STEWARTIA KOREANA AND USE THEREOF” (priority 2006, published 2010)

Test system: human umbilical vein endothelial cells (HUVEC)
Experiment: Migration of endothelial cells, Boyden chamber method
Format: cell-based
Details: positive control, 10 ng/mL VEGF, cultured 2 hours
Experimental: 0.1% gelatin was applied on a polycarbonate membrane (Costar, USA) for 10 minutes and dried at room temperature for 1 hour. 30 μL of human umbilical vein endothelial cells (HUVEC, 1×10^6 cells/mL) was put in a lower chamber of a trans-wells (Costar, USA), covered with the dried polycarbonate membrane, and an upper chamber was overlaid, followed by fixing by a screw. The chamber was turned over so that the cells could be attached to the membrane and cultured at 37° C. in a CO2 incubator for 2 hours.
50 μL of Stewartia koreana extract according to the present invention was added to the upper chamber and cultured for 2 hours. The polycarbonate membrane was died using the diff-quick staining agent and the migrated endothelial cells were counted through the polycarbonate membrane using a microscope (Table 1). Each dry extract powder of Stewartia koreana otained in Example were dissolved in water in an amount of 100 μg/mL. The negative control was water and the positive control was 10 ng/mL of VEGF (vascular endothelialgrowth factor, Sigma).
The polycarbonate membrane was stained with diff-quick staining agent and the number of the endothelial cells which had migrated through the polycarbonate membrane was then counted using a microscope (FIG. 1). […] The dry powder of the ethanol extract of Stewartia koreana and compound Madecassol™ were added to water in an amount of 12.5 to 100 μg/mL.

## VEGF
  Migrated endothelial cells: 75 ± 0.41
